For the test, the system named is B16F10 melanoma. The test can be described thus: B16F10 metastasis model (lung metastasis of B16F10 melanoma). The settings on record: 5 mg/kg subcutaneously once daily; after 14 days of treatment; 0.1×10^6 B16F10 cells i.v.; versus vehicle control. Format: in vivo, C57/b16J mice. Here is the method: In vivo Efficacy of Compound 1 on Metastasis of B16F10 Melanoma
C57/b16J female mice (Aurigene, Bangalore, India) aged 6 to 8 weeks were used for the experiment. Animals were acclimatized for a week in the experimental room before conducting the experiment.
Effect of Compound 001 in B16F10 Metastasis Model
In the case of metastasis model, 0.1×10^6 B16F10 cells were injected to C57/b16J mice through i.v. Compound 001 dissolved in PBS, pH 7.4 was dosed subcutaneously at 5 mg/kg once daily. Vehicle control group of mice received only saline. Each group consisted of ten animals. Body weight and clinical signs were recorded daily. After 14 days of treatment, lung metastasis was quantitated by counting number of nodules under dissection microscope.

Take Compound 001: SEQ ID NO: 3 (SNTSEFS): the “reduction in metastasis (lung metastasis quantitated by counting number of nodules)” value is 64%.

Source of the values: patent publication US9096642B2, “Therapeutic compounds for immunomodulation” (Aurigene Discovery Technologies Limited, priority 2011, dated 2015).
